Laboratory results taken from publication PMC10490032, “From Monoamine Oxidase Inhibition to Antiproliferative Activity: New Biological Perspectives for Polyamine Analogs” (Molecules, 2023).
Entries after “also recorded” stand apart in the source; their conditions may differ.

T1: human recombinant MAO A (Homo sapiens, UniProt P21397)
T1 sequence (P21397 1-527): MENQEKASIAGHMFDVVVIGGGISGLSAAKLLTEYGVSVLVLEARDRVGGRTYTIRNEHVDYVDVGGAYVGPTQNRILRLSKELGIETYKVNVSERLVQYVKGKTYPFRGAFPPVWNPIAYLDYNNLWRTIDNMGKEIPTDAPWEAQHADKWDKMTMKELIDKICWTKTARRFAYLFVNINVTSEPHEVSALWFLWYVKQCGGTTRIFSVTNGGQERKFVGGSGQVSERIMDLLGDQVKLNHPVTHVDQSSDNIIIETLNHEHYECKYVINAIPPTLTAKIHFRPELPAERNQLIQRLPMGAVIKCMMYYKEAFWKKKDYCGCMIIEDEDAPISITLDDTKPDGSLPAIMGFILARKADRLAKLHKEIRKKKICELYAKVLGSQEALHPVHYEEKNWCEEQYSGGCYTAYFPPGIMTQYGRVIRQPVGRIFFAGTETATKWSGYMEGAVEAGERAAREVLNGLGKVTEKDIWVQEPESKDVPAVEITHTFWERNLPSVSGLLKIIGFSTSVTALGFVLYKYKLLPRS

T2: human recombinant MAO B (Homo sapiens, UniProt P27338)
T2 sequence (P27338 1-520): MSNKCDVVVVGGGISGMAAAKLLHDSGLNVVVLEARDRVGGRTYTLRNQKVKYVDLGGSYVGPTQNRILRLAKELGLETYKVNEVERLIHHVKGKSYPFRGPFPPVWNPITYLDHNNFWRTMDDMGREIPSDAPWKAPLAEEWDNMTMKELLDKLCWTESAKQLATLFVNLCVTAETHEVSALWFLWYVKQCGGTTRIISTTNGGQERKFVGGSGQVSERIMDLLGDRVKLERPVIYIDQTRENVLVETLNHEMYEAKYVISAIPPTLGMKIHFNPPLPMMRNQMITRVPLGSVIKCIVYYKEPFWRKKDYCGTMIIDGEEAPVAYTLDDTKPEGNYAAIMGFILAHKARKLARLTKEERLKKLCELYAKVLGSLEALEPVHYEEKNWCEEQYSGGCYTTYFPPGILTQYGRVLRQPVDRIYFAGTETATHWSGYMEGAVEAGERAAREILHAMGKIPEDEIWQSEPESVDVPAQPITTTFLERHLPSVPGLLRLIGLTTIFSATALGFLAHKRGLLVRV

T3: human VAP-1 (Homo sapiens, UniProt Q16853)
T3 sequence (Q16853 1-763): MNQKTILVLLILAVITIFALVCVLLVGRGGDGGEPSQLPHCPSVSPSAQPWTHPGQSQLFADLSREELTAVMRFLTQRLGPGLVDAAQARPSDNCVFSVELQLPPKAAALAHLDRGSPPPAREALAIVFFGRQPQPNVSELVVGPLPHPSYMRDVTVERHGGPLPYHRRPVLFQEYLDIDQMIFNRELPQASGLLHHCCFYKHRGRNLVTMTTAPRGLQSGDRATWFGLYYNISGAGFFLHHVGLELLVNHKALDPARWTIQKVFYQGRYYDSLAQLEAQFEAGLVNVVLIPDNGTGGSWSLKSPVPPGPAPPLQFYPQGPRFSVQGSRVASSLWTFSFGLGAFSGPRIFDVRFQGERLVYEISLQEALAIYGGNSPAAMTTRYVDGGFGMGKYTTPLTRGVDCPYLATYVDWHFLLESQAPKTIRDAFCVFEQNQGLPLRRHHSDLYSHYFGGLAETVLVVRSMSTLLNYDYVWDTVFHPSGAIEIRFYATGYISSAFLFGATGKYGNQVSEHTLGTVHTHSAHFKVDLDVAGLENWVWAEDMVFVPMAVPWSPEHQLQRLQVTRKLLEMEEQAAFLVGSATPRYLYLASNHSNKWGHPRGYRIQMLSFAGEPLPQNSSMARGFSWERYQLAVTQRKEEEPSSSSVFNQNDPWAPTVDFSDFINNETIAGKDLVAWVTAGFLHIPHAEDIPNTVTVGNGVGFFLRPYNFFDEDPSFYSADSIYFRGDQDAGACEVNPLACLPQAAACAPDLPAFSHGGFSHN

B1: human recombinant MAO A (Homo sapiens) (protein)
chain: T1 sequence (P21397 1-527)

Columns and labels:
human recombinant MAO A = molecular target: T1, human recombinant MAO A; test: MAO A inhibition, kynuramine assay (4-hydroxyquinoline fluorescence); settings: MAO A Ki, human recombinant MAO A; kynuramine 10 μM; from slope of Vo/VI vs compound concentration (1.25–40 μM); mean ± S.D.
human recombinant MAO B [1] = molecular target: T2, human recombinant MAO B; set-up: purchased Merk s.r.l; (Italy); host or cells: baculovirus-infected BT1 cells; method as in PMID 21858471; settings: previous study ref 35; cited from earlier work
human recombinant MAO B [2] = molecular target: T2, human recombinant MAO B; test: MAO B inhibition, kynuramine assay (4-hydroxyquinoline fluorescence); settings: MAO B Ki, human recombinant MAO B; kynuramine 10 μM; from slope of Vo/VI vs compound concentration (1.25–40 μM); mean ± S.D.
human VAP-1 [3] = molecular target: T3, human VAP-1; set-up: Biothie Therapies Cor; (Turku, Finland), gift; method as in PMID 21858471, PMID 30829081; settings: previous studies ref 35, 40; cited from earlier work
[4] = tested on: LN-229 glioblastoma cell line; test: Inhibition growth assay, Trypan blue exclusion; format: cell-based, human; settings: Homo sapiens, LN-229, 48 h, LN-229, 48 h of incubation; mean ± SD of five independent experiments in duplicate
Source text: On this basis, we investigated the antiproliferative effect of compounds 1–7 on LN-229, a human glioblastoma cell line. Compound 1 and the well-known antitumor drug doxorubicin were taken as references. […] The data in Table 3 support the lack of cytotoxicity of compound 1.
The LN-229 (human glioblastoma) was purchased from the American Type Culture Collection (ATCC) and cultured in DMEM (D2902, Sigma Chemical Co., St. Louis, MO, USA) supplemented with 3.5 g/L of glucose and 5% heat-inactivated fetal calf serum (FCS) (F7524, Sigma Chemical Co.), respectively. A total of 100 U/mL of penicillin, 100 μg/mL of streptomycin, and 0.25 μg/mL of amphotericin B (Sigma Chemical Co.) were added to the medium. Cells were cultured at 37 °C in a humidified atmosphere incubator containing 5% carbon dioxide in air.
Cells (3–6 × 10^4/well) were seeded into a 24-well cell culture plate; after 24 h, different concentrations of the test compounds or reference drug were added. After 48 h of incubation in standard conditions, the cell viability was determined by using a Trypan blue exclusion assay. Briefly, cells were detached by using a […] and 0.3 mM EDTA solution in PBS and stained with 0.1% Trypan blue solution in PBS. Unstained viable cells were immediately counted in a Burker chamber. The percentage of viable cells was calculated with respect to the untreated control culture. […] The goodness of the fit was expressed by the r^2 coefficient, and the best fit report included the analysis of variance corrected for the mean of the observations with the p values (p < 0.005 for all the tested compounds). Data are the means ± SD of at least five independent experiments in duplicate.

MAO = test: Test of compounds as potential MAO substrates, Amplex Red/horseradish peroxidase coupled method; format: biochemical, human; settings: up to a 50 μM concentration
Procedure: Before evaluating the potential MAO inhibitory capability of derivatives 2–7, kinetic experiments were performed to assay their behaviors as potential MAO substrates by using the Amplex Red/horseradish peroxidase coupled method, which detects the hydrogen peroxide produced by the amine oxidase enzyme activity in the presence of an amine substrate. […] Thus, for the subsequent inhibition studies, an assay method that used kynuramine as the MAO substrate and detected the production of 4-hydroxyquinoline (formed from the aldehyde reaction product) was applied.
Except for compound 4, no significant interference of the other polyamine analogs with the preliminary calibration curves was observed. […] The evaluations of the effects of compounds 1–7 on the MAO activity were performed by using a kynuramine assay due to the interferences of compound 4 with the Amplex Red method.

murine SMOX [5] = molecular target: T4, murine SMOX (Mus musculus, UniProt Q99K82); set-up: made in house; host or cells: E. coli BL21 DE3; settings: previous studies ref 35, 40; cited from earlier work
murine SMOX [6] = molecular target: T4, murine SMOX; test: SMOX amine oxidase activity, Amplex Red/horseradish peroxidase assay, spermine as substrate; settings: up to a 50 μM concentration
human VAP-1 [7] = molecular target: T3, human VAP-1; test: VAP-1 amine oxidase activity, Amplex Red/horseradish peroxidase assay, benzylamine as substrate; settings: up to a 50 μM concentration
[8] = substrate: NCCC(=O)c1ccccc1N; test: purified protein, by the assay type; settings: other: substrate, human recombinant MAO A; pH 7.4; 37.0 °C

T4 sequence (Q99K82 whole entry): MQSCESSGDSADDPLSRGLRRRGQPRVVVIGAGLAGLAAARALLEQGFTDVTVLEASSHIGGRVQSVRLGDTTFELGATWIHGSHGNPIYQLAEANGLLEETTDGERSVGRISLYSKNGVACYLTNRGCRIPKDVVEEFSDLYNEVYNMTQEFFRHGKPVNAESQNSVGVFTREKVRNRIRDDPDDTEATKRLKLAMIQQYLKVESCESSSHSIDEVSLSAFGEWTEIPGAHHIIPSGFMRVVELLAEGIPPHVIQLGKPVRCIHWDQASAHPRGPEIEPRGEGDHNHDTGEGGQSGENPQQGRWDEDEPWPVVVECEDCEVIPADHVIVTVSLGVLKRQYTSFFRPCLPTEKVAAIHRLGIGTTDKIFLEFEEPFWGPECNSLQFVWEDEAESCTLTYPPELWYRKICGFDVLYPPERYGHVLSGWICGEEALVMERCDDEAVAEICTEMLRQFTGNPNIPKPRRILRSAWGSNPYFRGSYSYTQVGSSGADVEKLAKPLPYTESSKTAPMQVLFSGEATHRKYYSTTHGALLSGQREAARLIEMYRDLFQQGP

Molecule | Ki (human recombinant MAO A) [µM] | Mode of inhibition of MAO B (human recombinant MAO B [1]) | Ki (human recombinant MAO B [2]) [µM] | Inhibition of VAP-1 (human VAP-1 [3]) | GI50 [4] [µM] | Behaviour as MAO substrate (MAO) | Inhibition of SMOX (murine SMOX [5]) | Behaviour as SMOX substrate (murine SMOX [6]) | Behaviour as VAP-1 substrate (human VAP-1 [7]) | Km [8] [µM]
COc1ccccc1CNCCCCCCN1CCC(CCC2CCN(CCCCCCNCc3ccccc3OC)CC2)CC1 [Compound 2] | 247 ± 42 | mainly competitive/mixed; also recorded: reversible mixed-type | 330 ± 30 | poor inhibitor | 4.6 ± 1.1 | did not act as substrates | poor inhibitor |  |  | 
COc1ccccc1CNCCCCCC(=O)N1CCC(CCC2CCN(C(=O)CCCCCNCc3ccccc3OC)CC2)CC1 [Compound 3] | 70 ± 7 |  | 19 ± 2 |  | 2.2 ± 0.9 | did not act as substrates |  | not substrates | not substrates | 
B1 |  |  |  |  |  |  |  |  |  | 32 ± 11
